Assays:
[1] = Pharmacokinetic behaviour of DHT (patch) in combination with estriol gel, transdermal, 18 healthy young male test persons; details: human, in vivo, topical or ocular
Experimental: Pharmacokinetic Behaviour of Dihydrotestosterone (DHT) in Combination with Estriol Gel
In a randomized study, the pharmacokinetic behaviour of DHT and estriol after transdermal application was examined in 18 healthy young male test persons.
The DHT patch contains 150 mg of the active ingredient and was left on the test persons' skin for 24 hours. This galenic form releases 6 mg of DHT per day.
The estriol gel contains 5 mg of active ingredient in 0.5 g of gel. This gel formulation was applied one time to 150 cm^2 of skin (forearm).
For analysis, 12 blood samples were taken from each test person after the application over a period of 48 hours.

[2] = 5α-dihydrotestosterone vs testosterone; cited from earlier work
[3] = test system: endogenic testosterone production; details: cited from earlier work; for inhibition of endogenic testosterone production: Oettel 1993
[4] = Pharmacokinetic behaviour of mesterolone in combination with estradiol valerate, single oral application, 24 healthy young male test persons; details: human, in vivo
Experimental: Pharmacokinetic Behaviour of Mesterolone in Combination with Estradiol Valerate (EV)
In a randomized study, the kinetic behaviour of mesterolone (25 mg tablet) in combination with EV (1 mg lozenge) after a single oral application was examined in 24 healthy young male test persons.
Each test person was administered mesterolone and EV after a monitored fasting period of 12 hours. After the application, 18 blood samples were taken from each test person over a period of 60 hours.

[5] = test system: cholesterol, lipoprotein and lipase levels; details: testosterone esters; cited from earlier work
[6] = Clinical study in hypogonadal men: serum hormone levels
[7] = test system: hypogonadal men; test: Clinical study in 23 hypogonadal men: clinical findings (efficacy and side effects)
[8] = cited from earlier work
[9] = mesterolone 25 mg tablet + EV 1 mg lozenge, single oral

C[C@]12CCC(=O)C[C@@H]1CC[C@@H]1[C@@H]2CC[C@]2(C)[C@@H](O)CC[C@@H]12 [DHT, 5α-dihydrotestosterone]
Cmax ([1]; 150 mg): 4.51 ± 1.23 ng/mL
activity relative to testosterone [2]: about twice as active as testosterone
inhibition of endogenic testosterone production [3]: not been observed

C[C@]12CC[C@@H]3c4ccc(O)cc4CC[C@H]3[C@@H]1CC[C@@H]2O [estradiol, 17β-estradiol]
inhibition of endogenic testosterone production [3]: not been observed

C[C@]12CC[C@@H]3c4ccc(O)cc4CC[C@H]3[C@@H]1C[C@@H](O)[C@@H]2O [estriol]
Cmax ([1]; 5 mg): 0.00882 ± 0.00254 ng/mL

C[C@H]1CC(=O)C[C@@H]2CC[C@H]3[C@@H]4CC[C@H](O)[C@@]4(C)CC[C@@H]3[C@]21C [mesterolone]
concentration at 60 h ([4]; 60 h after single oral mesterolone 25 mg + EV 1 mg): 0.48 ng/mL
Cmax [4, 9]: 6.9 ng/mL
Tmax [4, 9]: 8.9 h
half-life [4, 9]: 13.2 h
AUC at 60 h ([4]; mesterolone 25 mg tablet + EV 1 mg lozenge, single oral, 60 h): 177 ng·h/mL
inhibition of endogenic testosterone production [3]: not been observed

CCCCCCC(=O)O[C@H]1CC[C@H]2[C@@H]3CCC4=CC(=O)CC[C@]4(C)[C@H]3CC[C@]12C [testosterone enanthate]
period of reversible inhibition of endogenic testosterone production ([3]; patients with working gonadal testosterone biosynthesis (Humpel and Oettel 1994)): about 2 weeks
effect on HDL cholesterol [5]: can cause a minor suppression
effect on total and LDL cholesterol levels [5]: only have a minor effect
LH levels in the serum / LH synthesis ([6]; 12 months): reduced in the serum of all participants
maximum values compared with testosterone levels in healthy men ([6]; Arm 1, 250 mg i.m.): significant increase
cumulation ([6]; Arm 1, testosterone, subsequent applications): no cumulation
gynaecomastia ([7]; 12 months): Five out of 12
increase in the size of the prostatic glands / prostatic hyperplasia ([7]; 12 months): could not be detected
pelage increase ([7]; 12 months): All men experienced a pelage increase
prostate-specific antigen (PSA), change ([7]; 12 months): slightly up in all patients
volume/weight of testicles ([7]; 12 months): the volume of their testicles got smaller
Collagen depletion ([7]; Arm 1): not detected
thickening of the skin, increase in water retention, tension and elasticity of the tissue ([7]; Arm 1): All participants in the study showed a thickening of the skin, an increase in water retention, and an improvement of the tension and elasticity of the tissue
improvement of the morning erection ([7]; Arm 1, 12 months): Nine out of 12
patients free of complaints ([7]; Arm 1, n=12): Nine
increased susceptibility to acne / development of acne ([7]; Arm 1 after 4 months of treatment, Arm 2 12 months): Seven of the 12
voice pitch / voice change ([7]; Arm 1 after 4 months, Arm 2 12 months): voice pitch of all men lowered towards a bass tone
increase in penis size ([7]; Arm 1 n=12, Arm 2 n=11, 12 months): 11 men/patients
bone density ([7]; after 6 months of treatment): All patients showed an apparent increase in bone density
symptoms of andropause ([7]; hot flashing, exhaustion, weakness of concentration, reduced efficiency, disgruntlement, disturbances of libido and potency): became less frequent

C[C@]12CC[C@H]3[C@@H](CCC4=CC(=O)CC[C@@]43C)[C@@H]1CC[C@@H]2O [testosterone]
estradiol levels in the plasma ([8]; intramuscular injection (Tenover 1992)): doubled
increase of estradiol levels in the plasma ([8]; percutaneous application (Kuhn 1986)): 70%

Reference: patent US5855905A, “Compound preparation for the treatment of hypogonadal men and men with hypophyseal diseases” (priority 1996, dated 1999)
